One experiment addresses T1, NPR-B (Homo sapiens, UniProt P20594).
T1 construct: a functional assay using endogenously NPR-B expressing GTM-3 cells; endogenous in cells; host or cells: GTM-3 (human glaucoma trabecular meshwork cells)
T1 sequence (P20594 23-1047): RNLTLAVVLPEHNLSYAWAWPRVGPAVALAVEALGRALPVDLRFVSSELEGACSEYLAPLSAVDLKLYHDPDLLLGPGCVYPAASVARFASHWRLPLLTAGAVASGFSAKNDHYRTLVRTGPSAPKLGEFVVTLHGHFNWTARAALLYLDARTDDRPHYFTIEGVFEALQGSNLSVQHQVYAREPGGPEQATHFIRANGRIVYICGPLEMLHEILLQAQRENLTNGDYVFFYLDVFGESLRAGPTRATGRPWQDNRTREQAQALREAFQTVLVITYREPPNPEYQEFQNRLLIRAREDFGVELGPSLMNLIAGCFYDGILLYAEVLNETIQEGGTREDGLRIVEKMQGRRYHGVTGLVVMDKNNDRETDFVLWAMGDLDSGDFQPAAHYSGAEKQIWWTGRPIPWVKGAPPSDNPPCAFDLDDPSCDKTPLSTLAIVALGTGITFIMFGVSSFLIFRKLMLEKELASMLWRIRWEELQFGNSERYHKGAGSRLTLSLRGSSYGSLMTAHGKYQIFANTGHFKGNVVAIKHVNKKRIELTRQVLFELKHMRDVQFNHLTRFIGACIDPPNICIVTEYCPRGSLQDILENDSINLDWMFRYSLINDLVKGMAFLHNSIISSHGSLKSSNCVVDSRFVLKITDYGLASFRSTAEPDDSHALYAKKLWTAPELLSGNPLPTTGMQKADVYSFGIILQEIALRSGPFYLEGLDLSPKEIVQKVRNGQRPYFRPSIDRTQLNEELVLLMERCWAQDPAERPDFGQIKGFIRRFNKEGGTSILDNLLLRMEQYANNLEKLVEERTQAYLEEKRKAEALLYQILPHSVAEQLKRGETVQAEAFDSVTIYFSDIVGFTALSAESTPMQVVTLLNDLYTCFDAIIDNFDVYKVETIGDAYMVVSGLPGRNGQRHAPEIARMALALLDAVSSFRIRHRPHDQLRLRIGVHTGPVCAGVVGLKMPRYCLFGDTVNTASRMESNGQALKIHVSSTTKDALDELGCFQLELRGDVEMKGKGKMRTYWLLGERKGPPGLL
Kind of experiment: NPR-B induced production of cyclic GMP in human glaucoma trabecular meshwork cells (GTM-3). As to conditions: group by EC50 and Emax (CNP = 100%); Table 4; read-out: Activity (group), NPR-B activation assayed with GTM-3 cells. Format: cell-based.

The subject of the next experiment is rabbit eyes. Nature of the experiment: Efficacy in the rabbit: intraocular pressure (IOP) after a single topical ocular drop. Format: in vivo. As to conditions: dose 300 ug topical ocular, single 30 μL drop, up to 4 hr post dose, 1% as suspension (+) or solution (++) per mark on label. How it is done:
A single 30 μL drop of a test item formulation was administered to rabbit eyes (n=8 to 10).
Intraocular pressure (IOP) was assessed in each eye at 0 hr, just prior to dosing, and again hourly for up to 4 hr post dose. The efficacy of a given formulation was determined based on the difference between the pretreatment TOP readings at 0 hr and the post treatment readings. A maximum percent reduction in IOP greater than 15% was noted by the “+” symbol. A maximum IOP reduction of less than 15% was assigned the “−” symbol.

Numbered stars: 1 amine (or outer) side, 2 acyl side, 3 side chain; on linkers, the order of the positions; unused ones are H or OH. Square brackets hold non-standard residues; d marks the D form. Peptide text beside a SMILES is read from it. * marks the point of attachment. Pro(4R-NH2) = N[C@H]1CN[C@H](C(=O)O)C1; dOrn(Me2) = CN(C)CCC[C@@H](N)C(=O)O; X2 = O=C([C@H]1CCCN([*:1])C1)[*:2]; dDap(Me2) = CN(C)C[C@@H](N)C(=O)O; Hyp = O=C(O)[C@@H]1C[C@@H](O)CN1; NHcycloheptyl = C1CCCC(N*)CC1; NMeL = CN[C@@H](CC(C)C)C(=O)O; Octanoyl = CCCCCCCC(=O)*

With `CCCCCCCC(=O)N[C@H](C)C(=O)N[C@@H](Cc1ccccc1)C(=O)N[C@H](CCCCN)C(=O)N[C@@H](CC(C)C)C(=O)N1C[C@H](O)C[C@H]1C(=O)N(C)[C@@H](CC(C)C)C(=O)N[C@@H](CC(=O)O)C(=O)N[C@@H](CCCNC(=N)N)C(=O)N[C@H](C(N)=O)[C@@H](C)CC` [JAL-1060, Occ-ala-Phe-lys-Leu-Hyp-Nml-Asp-Arg-Ile-NH2] (HELM PEPTIDE1{[CCCCCCCC(=O)[*:2]].[dA].F.[dK].L.[Hyp].[meL].D.R.I.[am]}$$$$V2.0), the EC50 on NPR-B was under 1 µM. In addition, the “RIOP, maximum percent reduction in IOP” value in the experiment on rabbit eyes was “+ (+ IOP reduction >15%)”.
The like results for `CCCCCCCC(=O)N1CCC[C@H](C(=O)N[C@@H](Cc2ccccc2)C(=O)N[C@H](CC(C)C)C(=O)N[C@@H](CC(C)C)C(=O)N2C[C@H](N)C[C@H]2C(=O)N(C)[C@@H](CC(C)C)C(=O)N[C@H](C(=O)N[C@@H](CCCNC(=N)N)C(=O)NC2CCCCCC2)C(C)C)C1` [JAL-1729, Occ-Sni-Phe-leu-Leu-Tap-Nml-Val-Arg-Che] (Octanoyl-[X2]F[dL]L[Pro(4R-NH2)][NMeL]VR-NHcycloheptyl) were, in that order, under 1 µM and “+ (+ IOP reduction >15%)”.
The corresponding values for `CCCCCCCC(=O)N1CCC[C@H](C(=O)N[C@@H](Cc2ccccc2)C(=O)N[C@H](CN(C)C)C(=O)N[C@@H](CC(C)C)C(=O)N2C[C@H](O)C[C@H]2C(=O)N(C)[C@@H](CC(C)C)C(=O)N[C@@H](CC(=O)O)C(=O)N[C@@H](CCCNC(=N)N)C(=O)N[C@H](C(N)=O)[C@@H](C)CC)C1` [JAL-1287, Occ-Sni-Phe-dap(Me2)-Leu-Hyp-Nml-Asp-Arg-Ile-NH2] (Octanoyl-[X2]F[dDap(Me2)]L[Hyp][NMeL]DRI-NH2) are under 1 µM and “+ (+ IOP reduction >15%)”.
The like results for `CCCCCCCC(=O)N[C@H](C)C(=O)N[C@@H](Cc1ccccc1)C(=O)N[C@H](CCCNC(=N)N)C(=O)N[C@@H](CC(C)C)C(=O)N1C[C@H](O)C[C@H]1C(=O)N[C@@H](CC(C)C)C(=O)N[C@@H](CC(=O)O)C(=O)N[C@@H](CCCNC(=N)N)C(=O)N[C@H](C(N)=O)[C@@H](C)CC` [JAL-1047, Occ-ala-Phe-arg-Leu-Hyp-Leu-Asp-Arg-Ile-NH2] (HELM PEPTIDE1{[CCCCCCCC(=O)[*:2]].[dA].F.[dR].L.[Hyp].L.D.R.I.[am]}$$$$V2.0) were, in that order, under 1 µM and “+ (+ IOP reduction >15%)”.
As for `CCCCCCCC(=O)N1CCC[C@H](C(=O)N[C@@H](Cc2ccccc2)C(=O)N[C@H](CN(C)C)C(=O)N[C@@H](CC(C)C)C(=O)N2C[C@H](N)C[C@H]2C(=O)N(C)[C@@H](CC(C)C)C(=O)N[C@@H](CC(=O)O)C(=O)N[C@@H](CCCNC(=N)N)C(=O)N[C@H](C(N)=O)[C@@H](C)CC)C1` [JAL-1325, Occ-Sni-Phe-dap(Me2)-Leu-Tap-Nml-Asp-Arg-Ile-NH2] (Octanoyl-[X2]F[dDap(Me2)]L[Pro(4R-NH2)][NMeL]DRI-NH2), at NPR-B, the EC50 was under 1 µM. Besides, the “RIOP, maximum percent reduction in IOP” value with rabbit eyes is “+ (+ IOP reduction >15%)”.
The corresponding values for `CCCCCCCC(=O)N1CCC[C@H](C(=O)N[C@@H](Cc2ccccc2)C(=O)N[C@H](CC(C)C)C(=O)N[C@@H](CC(C)C)C(=O)N2C[C@H](O)C[C@H]2C(=O)N(C)[C@@H](CC(C)C)C(=O)N[C@@H](CC(=O)O)C(=O)N2CCC[C@H]2C(=O)NC2CCCCCC2)C1` [JAL-1512_02, Occ-Sni-Phe-leu-Leu-Hyp-Nml-Asp-Pro-Che] (Octanoyl-[X2]F[dL]L[Hyp][NMeL]DP-NHcycloheptyl) are under 1 µM and “+ (+ IOP reduction >15%)”.
The like results for `CCCCCCCC(=O)N[C@H](C)C(=O)N[C@@H](Cc1ccccc1)C(=O)N[C@H](CC(C)C)C(=O)N[C@@H](CC(C)C)C(=O)N1C[C@H](O)C[C@H]1C(=O)N(C)[C@@H](CC(C)C)C(=O)N[C@@H](CC(=O)O)C(=O)N[C@@H](CCCNC(=N)N)C(=O)N[C@H](C(N)=O)[C@@H](C)CC` [JAL-1042, Occ-ala-Phe-leu-Leu-Hyp-Nml-Asp-Arg-Ile-NH2] (HELM PEPTIDE1{[CCCCCCCC(=O)[*:2]].[dA].F.[dL].L.[Hyp].[meL].D.R.I.[am]}$$$$V2.0) were, in that order, under 1 µM and “− (− IOP reduction <15%)”.
Turning to `CCCCCCCC(=O)N1CCC[C@H](C(=O)N[C@@H](Cc2ccccc2)C(=O)N[C@H](CCCN(C)C)C(=O)N[C@@H](CC(C)C)C(=O)N2C[C@H](O)C[C@H]2C(=O)N(C)[C@@H](CC(C)C)C(=O)N[C@@H](CC(=O)O)C(=O)N[C@@H](CCCNC(=N)N)C(=O)N[C@H](C(N)=O)[C@@H](C)CC)C1` [JAL-1289, Occ-Sni-Phe-orn(Me2)-Leu-Hyp-Nml-Asp-Arg-Ile-NH2] (Octanoyl-[X2]F[dOrn(Me2)]L[Hyp][NMeL]DRI-NH2), the EC50 on NPR-B is under 1 µM. The “RIOP, maximum percent reduction in IOP” value in the experiment with rabbit eyes was “+ (+ IOP reduction >15%)”.
The corresponding values for `CCCCCCCC(=O)N1CCC[C@H](C(=O)N[C@@H](Cc2ccccc2)C(=O)N[C@H](CC(C)C)C(=O)N[C@@H](CC(C)C)C(=O)N2C[C@H](N)C[C@H]2C(=O)N(C)[C@@H](CC(C)C)C(=O)N[C@@H](CC(=O)O)C(=O)N[C@@H](CCCNC(=N)N)C(=O)N[C@H](C(N)=O)[C@@H](C)CC)C1` [JAL-1295, Occ-Sni-Phe-leu-Leu-Tap-Nml-Asp-Arg-Ile-NH2] (Octanoyl-[X2]F[dL]L[Pro(4R-NH2)][NMeL]DRI-NH2) are under 1 µM and “+ (+ IOP reduction >15%)”.
Consider `CCCCCCCC(=O)N[C@H](C)C(=O)N(C)[C@@H](Cc1ccccc1)C(=O)N[C@H](CCCNC(=N)N)C(=O)N[C@@H](CC(C)C)C(=O)N1C[C@H](O)C[C@H]1C(=O)N(C)[C@@H](CC(C)C)C(=O)N[C@@H](CC(=O)O)C(=O)N[C@@H](CCCNC(=N)N)C(=O)N[C@H](C(N)=O)[C@@H](C)CC` [JAL-1085, Occ-ala-Nmf-arg-Leu-Hyp-Nml-Asp-Arg-Ile-NH2] (HELM PEPTIDE1{[CCCCCCCC(=O)[*:2]].[dA].[meF].[dR].L.[Hyp].[meL].D.R.I.[am]}$$$$V2.0), for which the EC50 on NPR-B is under 1 µM. For the same compound, the “RIOP, maximum percent reduction in IOP” value in the experiment with rabbit eyes is on record as “+ (+ IOP reduction >15%)”.
Consider `CCCCCCCC(=O)N1CCC[C@H](C(=O)N[C@@H](Cc2ccccc2)C(=O)N[C@H](CC(C)C)C(=O)N[C@@H](CC(C)C)C(=O)N2C[C@H](O)C[C@H]2C(=O)N(C)[C@@H](CC(C)C)C(=O)N[C@@H](CC(=O)O)C(=O)N[C@@H](CCCNC(=N)N)C(=O)N[C@H](C(N)=O)[C@@H](C)CC)C1` [JAL-1041, Occ-Sni-Phe-leu-Leu-Hyp-Nml-Asp-Arg-Ile-NH2] (HELM PEPTIDE1{[CCCCCCCC(=O)[*:2]].[O=C([C@H]1CCCN([*:1])C1)[*:2]].F.[dL].L.[Hyp].[meL].D.R.I.[am]}$$$$V2.0), for which the EC50 at NPR-B was under 1 µM. The “RIOP, maximum percent reduction in IOP” value in the experiment with rabbit eyes was “+ (+ IOP reduction >15%)”.
The corresponding values for `CCCCCCCC(=O)N[C@H](C)C(=O)N[C@@H](Cc1ccccc1)C(=O)N[C@H](CCCNC(=N)N)C(=O)N[C@@H](CC(C)C)C(=O)N1C[C@H](O)C[C@H]1C(=O)N(C)[C@@H](CC(C)C)C(=O)N[C@@H](CC(=O)O)C(=O)N[C@@H](CCCNC(=N)N)C(=O)N[C@H](C(N)=O)[C@@H](C)CC` [JAL-1086, Occ-ala-Phe-arg-Leu-Hyp-Nml-Asp-Arg-Ile-NH2] (HELM PEPTIDE1{[CCCCCCCC(=O)[*:2]].[dA].F.[dR].L.[Hyp].[meL].D.R.I.[am]}$$$$V2.0) are under 1 µM and “+ (+ IOP reduction >15%)”.
As to `CCCCCCCC(=O)N1CCC[C@H](C(=O)N[C@@H](Cc2ccccc2)C(=O)N[C@H](CC(C)C)C(=O)N[C@@H](CC(C)C)C(=O)N2C[C@H](N)C[C@H]2C(=O)N(C)[C@@H](CC(C)C)C(=O)N[C@H](C(=O)N2CCC[C@H]2C(=O)NC2CCCCCC2)C(C)C)C1` [JAL-1654, Occ-Sni-Phe-leu-Leu-Tap-Nml-Val-Pro-Che] (Octanoyl-[X2]F[dL]L[Pro(4R-NH2)][NMeL]VP-NHcycloheptyl), the EC50 at NPR-B is under 1 µM. The “RIOP, maximum percent reduction in IOP” value in the experiment on rabbit eyes is “− (− IOP reduction <15%)”.

These data come from US9822147B2, “Methods of treating ophthalmic diseases using NPR-B agonists” (priority 2009, dated 2017).
